“Also recorded” adds a separate entry of the source.
Tests used:
[1] = test system: 8XGliBS-luciferase reporter responsive to Gli1 in NIH3T3-E1 cells; test: CM-induced 8XGliBS-luciferase reporter assay; format: cell-based, mouse; conditions: 72 h treatment
Description: NIH3T3-E1 and Sufu^−/− cells cultured in 24-well plates at 90% confluence were transiently transfected with 0.1 µg of Gli response-element reporter (pGL3b-8xGli-Luciferase) plasmid, and 10 ng of pTK-Renilla-Luciferase plasmid with or without co-transfection with 10 ng of Gli1 overexpression vector, pSRα-Gli1, as previously described using Lipofectamine LTX Plus transfection reagent (Invitrogen). Twenty-four h after transfection, cells were treated with test agents for 72 h. Then the firefly and Renilla luciferase activities were measured using a dual luciferase kit (Promega, Madison, WI, USA) and a GloMax-96 Microplate Luminometer. The firefly luciferase activities were normalized to the Renilla luciferase activities. Data are reported as the mean of triplicate determinations ± SD.
Figure 3 Inhibition of ligand-induced Hedgehog signaling. NIH3T3 cells were pretreated for 2 h with the oxysterols or various inhibitors, as indicated, in DMEM containing 5% FBS. Next, cells were treated with CAPAN-1 conditioned medium (CM) in the absence or presence of oxysterols or inhibitors. After 72 h, RNA was extracted and analyzed by Q-RT-PCR for the expression of Hh target genes Gli1 (a,b,d) and Ptch1 (c), and normalized to Oaz1 expression. […] Luciferase activity was measured and normalized to the Renilla luciferase activity. […]

[2] = test system: Gli1 expression in PANC-1 cells; test: Inhibition of baseline Gli1 expression in PANC-1 cells, Q-RT-PCR; format: cell-based, human; conditions: 10 µM, 48 h
Text: (§1) NIH3T3-E1 fibroblasts were obtained from ATCC (Manassas, VA) and cultured, as previously described. CAPAN-1 and PANC-1 human pancreatic cancer cells were obtained from ATCC and cultured in Dulbecco’s Modified Eagle Medium (DMEM) containing 10% heat-inactivated fetal bovine serum (FBS) (Hyclone Laboratories, Logan, UT, USA) and antibiotics, as previously described. The human lung cancer cell lines A549 and H2030 were obtained from ATCC and cultured in RPMI-1640 containing 10% FBS. The human hepatoma cell line HepG2 was obtained from ATCC and cultured in DMEM containing 10% FBS. Mouse embryonic fibroblasts (MEFs) from suppressor of fused (Sufu) null mice (Sufu^−/−) were provided by Dr. Philip Beachy of Stanford University and cultured in DMEM containing 10% FBS. Gant61, SB431542 and vismodegib (GDC0449) were obtained from Cayman Chemical, HPI-1 was obtained from Abcam. For experiments, cells were treated in a medium containing 5% FBS.
(§2) Total RNA was extracted with the RNeasy Plus Mini Kit from Qiagen, according to the manufacturer’s instructions. One microgram of RNA was reverse-transcribed using an iScript Reverse Transcription Supermix from Bio-Rad, to make single-stranded cDNA. The cDNAs were then mixed with Qi SYBR Green Supermix (Bio-Rad, Hercules, CA, USA) for quantitative RT-PCR assay using a Bio-Rad I-cycler IQ quantitative thermocycler. All PCR samples were prepared in triplicate wells in a 96-well plate. […] Fold changes in gene expression were calculated using the ΔΔCt method. […]
(§3) Figure 4 Inhibition of Gli and Shh expression in (a) PDAC (PANC-1) and (b,c) human lung cancer cells (A549 and H2030, respectively) by Oxy186. Cells were treated with the compounds as indicated in DMEM or RPMI 1640 containing 5% FBS for (a) 48 or (b,c) 72 hours, then RNA was extracted and analyzed by Q-RT-PCR for the expression of Gli1 and normalized to GAPDH expression. (d) CAPAN-1 cells were treated with the compounds, as indicated, in DMEM containing 5% FBS for 72 h, then RNA was extracted and analyzed by Q-RT-PCR for the expression of Shh and normalized to GAPDH expression. […]

[3] = test system: Gli1 expression in H2030 cells; test: Inhibition of Gli1 expression in H2030 cells, Q-RT-PCR; format: cell-based, human; conditions: 10 µM, 72 h
Text: as §1, §2, §3

[4] = test system: Shh expression in CAPAN-1 cells; test: Inhibition of Shh expression in CAPAN-1 cells, Q-RT-PCR; format: cell-based, human; conditions: 72 h
Text: as §1, §2, §3

H2030 cells = test: Cell counting assay, H2030; format: cell-based, human
Description: A549 and H2030 cells cultured in 12-well plates at 20% confluence were treated with Oxy186, HPI-1, Gant61, or GDC0449 for 96 hours and then trypsinized and suspended in fresh medium. An aliquot of cell suspension was applied to a hemocytometer and counted under a microscope.
Figure 6 Inhibition of human pancreatic and lung cancer cell proliferation by Oxy186. (a,c) A549, (b) and (d) H2030, (e) PANC-1, and (f) CAPAN-1 cells were treated with the compounds as indicated in RPMI 1640 (a–d) or DMEM (e,f) containing 5% FBS for 96 h and then were trypsinized and counted. Data from a representative experiment are reported as the mean of triplicate determinations ± SD (* p < 0.05 vs. Control; ** p < 0.01 vs. control).

Structure (SMILES): C[C@]12CC[C@H](O)C[C@@H]1CC[C@@H]1[C@@H]2CC[C@@]2(C)[C@H]1CC[C@@H]2[C@](C)(O)CCc1ccc(F)cc1 [Oxy186, (3S,5S,8R,9S,10S,13S,14S,17S)-17-((R)-4-(4-fluorophenyl)-2-hydroxybutan-2-yl)-10,13-dimethylhexadecahydro-1H-cyclopenta[a]phenanthren-3-ol]
- Inhibition of CM-induced 8XGliBS-luciferase reporter activity [1]: significantly inhibited
- Inhibition of high baseline expression of Gli1 [2]: significantly inhibited
- Inhibition of expression of Gli1 [3]: significantly inhibited
- Inhibition of Shh expression [4]: robustly inhibited; also recorded: significant inhibition
- Anti-proliferative effect (H2030 cells; 96 h): significant anti-proliferative effect
- IC50 (H2030 cells; Homo sapiens, NCI-H2030, 96 h, read-out: IC50 for inhibition of cell proliferation): 3.1 µM

— publication PMC6562610, “Inhibition of Hedgehog Signaling in Fibroblasts, Pancreatic, and Lung Tumor Cells by Oxy186, an Oxysterol Analogue with Drug-Like Properties” (Cells, 2019)
